Entries after “also recorded” stand apart in the source; their conditions may differ.
Legend:
[1] = CLAMS study in cold conditions (4° C.); format: in vivo; conditions: mice, 1 μg/kg intravenously, 1 h at cold (4° C.)
Procedure: For CLAMS studies, mice were injected intravenously with 1 μg/kg body weight 12,13-diHOME in 0.1% BSA PBS or vehicle and then monitored using the CLAMS system in cold conditions (4° C.) for 1 hour. Respiratory exchange ratio (R.E.R.) was calculated as the ratio of total carbon dioxide produced to total oxygen consumed.

[2] = Daily injections of 12,13-diHOME in diet-induced obese mice; format: in vivo
Procedure: For the experiments with daily injections of 12,13-diHOME, mice were fed with a high-fat diet containing 60 kcal % fat (Research Diets Stock no. D12492) for 16 weeks prior to treatment and during the course of the experiment. Mice were first injected intraperitoneally daily with 1 ug/kg body weight, 12,13-diHOME in 0.1% BSA w/v in PBS or vehicle and body for one week, then injected every day with 10 ug/kg body weight two weeks. For all experiments, serum was collected and triglycerides were measured using a standard enzymatic assay (ZenBiosystems). Non-esterified FA were also measured with a colorimetric assay (Wako Chemicals USA). High-density and low-density lipoprotein fractions were isolated and cholesterol was measured with a colorimetric assay (Abcam). All mice were allowed ad libitum access to water and food.

CD36 = assay: Membrane fractionation and immunoblot, CD36; format: cell-based; conditions: differentiated WT-1 brown adipocytes, 1 μM for 15 minutes
Procedure: (§1) WT-1 brown preadipocytes were differentiated according to a standard adipogenic differentiation protocol for 9 days before cells were serum starved for 1 hour. Cells were treated with 1 μM 12,13-diHOME or methyl acetate vehicle in 0.1% BSA w/v in PBS for 15 minutes before cells were scraped from tissue culture plates into homogenization buffer and membranes were separated according to previously published protocols (Nishiumi, S. & Ashida, H., Bioscience, biotechnology, and biochemistry. 71, 2343-2346 (2007)). Protein lysates were stored at −20° C. until further use. Protein concentrations were determined by using the Pierce BCA kit (Life Technologies) according to instructions. For immunoblots, lysates were diluted into Laemmli buffer and boiled, then loaded onto 10% Tris gels for SDS-PAGE. After complete separation of the proteins, these were transferred on a PVDF membrane (Amersham Biosciences), blocked in western blocking buffer (Roche), and primary antibodies listed in Table 1, below, were applied in blocking buffer over night at 4° C. After washing 4× for 15 min with TBS-T, secondary antibodies were applied for 1 h in blocking buffer. Membranes were washed again 3× times for 15 min in TBS-T and developed using chemiluminescence (ThermoFisher). After scanning films, densitometry was analyzed using ImageJ software.

mature brown adipocytes = assay: In vitro fatty acid uptake (FFA-SS-Luc) in brown adipocytes constitutively expressing luciferase; format: cell-based, mice; conditions: 1 μM for 15 minutes, 10 μM FFA-SS-Luc
Procedure: Stromal vascular cells were isolated from interscapular brown adipose tissue dissected from TgLuc mice (Stock no. 008450) obtained from The Jackson Laboratory. Cells were immortalized and differentiated into adipocytes in vitro according to the WT-1 protocol (Tseng, Y. H. et al., Mol. Cell Biol. 24, 1918-1929 (2004)). After 1 hour of serum starvation, mature adipocytes were treated with 1 μM 12,13-diHOME or methyl acetate vehicle in 0.1% w/v BSA in PBS for 15 minutes. After this treatment, cells were incubated with 10 μm FFA-SS-Luc (Intrace Medical) and imaged using the IVIS Spectrum CT using sequential 30 s exposures for 1 hour. Data was analyzed using Living Image Software and movies were assembled from individual images using ImageJ. All cultures were confirmed to be Mycoplasma free.

[3] = Cold tolerance assay (body core temperature at 4° C.); format: in vivo; conditions: mice, 1 μg/kg retro-orbitally, cold challenge at 4° C., compared to vehicle and 12,13-epOME
Procedure: (§2) For cold tolerance assay, mice were injected retro-orbitally with 1 μg/kg body weight 12,13-diHOME (purchased from Cayman Chemical Company) in 0.1% w/v BSA in PBS or vehicle, then immediately placed in a cold room maintained at 4° C. and body core temperature was determined by rectal probe measurements. Mice injected retro-orbitally were also used to measure blood pressure and pulse with the tail cuff method (Hatteras Instruments).

WT-1 brown adipocytes [4] = assay: Seahorse Bioanalyzer oxygen consumption; format: cell-based
Procedure: WT-1 brown preadipocytes were seeded onto gelatin coated Seahorse Plates and differentiated according to standard protocols. Cells were starved for 1 h, then treated for 15 min with 1 μM 12,13-diHOME or methyl acetate vehicle. The oxygen consumption rates (OCR) were monitored in 200 μM palmitic acid plus 100 μM albumin in a Seahorse XF24 instrument using the standard protocol of 3 min mix, 2 min wait, and 3 min measure. For the normalization of respiration to protein content, cells were lysed in RIPA buffer and protein concentration was measured using the Pierce BCA kit (Life Technologies).

[5] = Blood pressure and pulse by the tail cuff method; format: in vivo; conditions: mice, acute pretreatment
Procedure: as §2

WT-1 brown adipocytes [6] = assay: 14C-labeled palmitic acid uptake and oxidation; format: cell-based; conditions: mature brown adipocytes
Procedure: FA uptake and oxidation were determined by measuring both ^14C-labeled palmitic acid uptake and conversion of ^14C-labeled palmitic acid into CO2. WT-1 brown preadipocytes were differentiated according to a standard adipogenic differentiation protocol for 9 days before cells were serum starved for 1 hour. Cells were treated with 1 μM 12,13-diHOME or methyl acetate vehicle in 0.1% w/v BSA in PBS for 15 minutes before the culture medium was removed, and cells were incubated with DMEM/H containing 4% FA-free BSA w/v in PBS, 0.5 mM palmitic acid, and 0.2 μCi/mL [1-^14C]-palmitic acid (PerkinElmer Life and Analytical Science, Waltham, Mass.) for 1 h. The incubation medium was transferred to a vial containing 1M acetic acid, capped quickly, and allowed to incubate for 1 h for CO2 gas to be released. The CO2 released was absorbed by hyamine hydroxide, and activity was counted. FA oxidation was calculated from CO2 generated. To measure fatty acid uptake, cells were rinsed twice with PBS and lysed after incubation with [1-^14C]-palmitic acid. Lipids were extracted using a chloroform-methanol mixture (2:1), and ^14C-counts were determined in the organic phase. Protein concentrations were determined by using the Pierce BCA kit (Life Technologies) according to instructions, and FA uptake (^14C lipids in the cells) and oxidation (^14CO2 generated) were normalized to protein content. […]

FATP1 = assay: Membrane fractionation and immunoblot, FATP1; format: cell-based; conditions: differentiated WT-1 brown adipocytes, 1 μM for 15 minutes
Procedure: as §1

[7] = diet-induced obese mice, daily for 2 weeks at 10 μg/kg body weight
[8] = obese mice, chronic treatment (i.e., one week)

CCCCCC(O)C(O)C/C=C\CCCCCCCC(=O)O (stereo not drawn) [12,13-diHOME, 12,13-dihydroxy-9Z-octadecenoic acid]
carbon dioxide production [1]: significant increases | oxygen consumption [1]: significant increases | respiratory exchange ratio [1]: decrease | body weight [2, 7]: no effect | circulating non-esterified FA [2, 7]: no effect | circulating triglyceride levels [2, 7]: significantly decreased | glucose tolerance [2, 7]: no effect | body weight [2, 8]: without alteration | circulating triglyceride [2, 8]: significant reduction | membrane translocation of the low glycosylation form of CD36 (CD36): robustly induced | FFA-SS-Luc uptake in vitro (mature brown adipocytes): significantly increased | body temperature during cold challenge [3]: protected mice from the decrease in body temperature; also recorded: protected mice from cold challenge | basal respiration (WT-1 brown adipocytes [4]; 1 μM for 15 min): significantly increased | maximal respiratory capacity (WT-1 brown adipocytes [4]; data not shown): no effect | uncoupling (WT-1 brown adipocytes [4]; data not shown): no effect | blood pressure [5]: no effect | diastolic pressure [5]: very transient increase | pulse [5]: no effect | radiolabeled FA uptake (WT-1 brown adipocytes [6]; 1 μM for 15 minutes, 14C palmitic acid): markedly increased | FA oxidation (WT-1 brown adipocytes [6]; 1 μM, 14C palmitic acid to CO2): trend to increase | membrane translocation of oligomeric FATP1 (FATP1): robustly induced
